Columns and labels:
[1] = system: TF1 line; test: Proliferation inhibition of TF1 myeloid leukemia line (cell count or XTT test); format: cell-based
Experimental: (§1) The myeloid line is represented by the following clonal malignant cells: the HL60 line and the TF1 line. TF1 constitutively expresses the histamine H4 receptor and proliferates in response to GMCSF.
(§2) Tritoqualine, a mixture of 2 enantiomers, has been tested on this line between 10^−5 and 10^−7M with or without CB 10^−5M addition.
(§3) The TF1 line and the HL60 line are represented by inoculates of 100,000 cells in one milliliter incubated for 3 days with GM-CSF (10 ng/ml).
(§4) The reading is done on the third day and the number of cells in the proliferation phase is measured. […] Normally, all of the cells are in the proliferation phase when the cells are stimulated with GMCSF.
(§5) The results are expressed in proliferation inhibition % (n=3): The result is the Mean of the three tests performed.
(§6) The results are expressed in estimated proliferation inhibition % by cell count or by rock proliferation test. This test measures the incorporation of a dye when the cells are proliferating (XTT test).

[2] = system: Pre T line; test: Proliferation inhibition of Pre T lymphoid line (cell count or XTT test); format: cell-based
Experimental: (§7) The lymphoid line is represented by the following clonal malignant cells: the Pre T line and the Pro B line. The cells are cultured using the same technique as the myeloid lines.
(§8) The reading is done on the third day, and the number of cells in the proliferation phase is measured. The ratio between the cells in the proliferation phase and the cells that are not proliferating yields the percentage of cells in inhibition. Normally, all of the cells are in the proliferation phase when the cells are stimulated with GMCSF.
(§9) The results are expressed in proliferation inhibition % (n=3): The result is the Mean of the three tests done.
as §6

[3] = system: Pro B line; test: Proliferation inhibition of Pro B lymphoid line (cell count or XTT test); format: cell-based
Experimental: as §7, §8, §9, §6

[4] = molecular target: T1, histamine H4 receptor (Homo sapiens, UniProt Q9H3N8); settings: unit not given; cited from earlier work
[5] = system: HL60 line; test: Proliferation inhibition of HL60 myeloid leukemia line (cell count or XTT test); format: cell-based; settings: tritoqualine at 10^-5; 3 days with GM-CSF 10 ng/ml; mean of n=3
Experimental: as §1, §2, §3, §4, §5, §6

[6] = Solubility in water; format: physicochemical; settings: including with fetal calf serum added
Description: We dilute the tritoqualine in dimethyl sulfoxide, also called DMSO.

[7] = molecular target: T1, histamine H4 receptor; test: Reversal of tritoqualine effect by a histamine H4 antagonist; format: cell-based; settings: with a histamine H4 antagonist; myeloid cells
Description: This appears to indicate that the H4 agonist effect is indeed responsible for the activity of tritoqualine.

[8] = white powder; breaks down into Cotarnine and phthalic acid; cited from earlier work

solubility in water [6]	effect of a histamine H4 antagonist on the effect of tritoqualine [7]	Compound	inhibition of proliferation of the myeloid line (in words) ([1]; 'this line' (myeloid, TF1), dose of 10^-5M)	blocking of proliferation of Pre T cells (in words) [2]	blocking of proliferation of Pro B cells (in words) [3]	affinity (histamine H4 agonist) [4]	proliferation inhibition % of TF1 cells ([1]; tritoqualine at 10^-5, 3 days with GM-CSF 10 ng/ml, mean of n=3)	proliferation inhibition % of HL60 cells [5] [%]	proliferation inhibition % of Pre T cells ([2]; at 10^-5, reading on third day, mean of n=3)	proliferation inhibition % of Pro B cells ([3]; at 10^-5, reading on third day, mean of n=3, equal to the control without product) [%]	sensitivity to light [8]
–	–	NC(=NCc1ccc(Cl)cc1)SCCCc1cnc[nH]1 [Clobenpropit]	inhibits the proliferation	block the proliferation	not	10^−9	–	–	–	–	–
low solubility	inhibits the effect of tritoqualine	CCOc1c(N)c2c(c(OCC)c1OCC)C(C1c3c(cc4c(c3OC)OCO4)CCN1C)OC2=O (centres unmarked) [tritoqualine, (AMINO-7 TRIETHOXY-4,5,6 OXO-1 DIHYDRO-1,3 ISOBENZOFURANNYL-3)-1 METHOXY-8 METHYL-2METHYLENEDIOXY-6,7 TETRAHYDRO-,2,3,4 ISOQUINOLEINE]	–	block the proliferation	not	10^−6	approximately 58%	~68	approximately 45%	15	very sensitive to light

Source: patent US20150148538A1, “USE OF AN H4 AGONIST MOLECULE TO TREAT ACUTE LEUKEMIA” (priority 2013, published 2015)
